We go through 5 compounds from US5268465A, “Purification and molecular cloning of nitric oxide synthase” (The Johns Hopkins University, priority 1991, dated 1993).

Data set [1] has as its target T1, NO synthase (Rattus norvegicus, UniProt P0DP29+P29476). The experiment in a line: NO synthase activity, conversion of [3H]arginine to [3H]citrulline, purified enzyme. Type of data set: biochemical. Particulars: for EC50: read-out: EC50 for enhancement/stimulation of enzyme activity; for IC50: read-out: Calmodulin antagonists, IC50.
In data set [2] the target is T2, NO synthase activity in crude brain supernatant preparations (Rattus norvegicus, UniProt P29476).
T2 construct: not recombinant
The experiment in a line: NO synthase activity, conversion of [3H]arginine to [3H]citrulline, crude cerebellar/brain supernatant preparations. Type of data set: biochemical. On the procedure: (§1) This example describes the method by which NOS activity was assayed. […] After incubation for 5 min at 22° C., assays were terminated with 2 ml of 20 mM Hepes, pH 5.5/2 mM EDTA, and were applied to 1-ml columns of Dowex A[…]-8 (Na^+ form), which were eluted with 2 ml of water. [^3 H]Citrulline was quantified by liquid scintillation spectroscopy of the 4-ml flow-through.

The target of data set [3] is T1, NO synthase. As to the kind of experiment: Effects of varying calcium, calmodulin and NADPH on NO synthase activity. It counts as biochemical. On the procedure:
After incubation for 5 min at 22° C., assays were terminated with 2 ml of 20 mM Hepes, pH 5.5/2 mM EDTA, and were applied to 1-ml columns of Dowex A[…]-8 (Na^+ form), which were eluted with 2 ml of water. [^3 H]Citrulline was quantified by liquid scintillation spectroscopy of the 4-ml flow-through.

The target of data set [4] is NO synthase activity in crude brain supernatant preparations (Rattus norvegicus, UniProt P0DP29). The experiment in a line: NO synthase activity, conversion of [3H]arginine to [3H]citrulline, crude cerebellar/brain supernatant preparations. Type of data set: biochemical. Particulars: crude brain supernatant preparations; read-out: IC50, inhibition of NO synthase activity. On the procedure:
as §1

In data set [5] the target is T3, NO synthase (Rattus norvegicus, UniProt P29476).
T3 construct: Eighteen rat cerebella were homogenized; from tissue; host or cells: rat cerebella (supernatant, DEAE eluate, 2',5'-ADP agarose eluate)
As to the kind of experiment: Restoration of enzyme activity of DEAE eluate fractions. Type of data set: biochemical. On the procedure:
Eighteen rat cerebella were homogenized in 100 ml of ice-cold buffer A [50 mM Tris-HCl, pH 7.4/1 mM EDTA/antipain (10 mg/liter)/leupeptin (10 mg/liter)/soybean trypsin inhibitor (10 mg/liter)/pepstatin (10 mg/liter)/chymostatin (10 mg/liter)/phenylmethylsulfonyl fluoride (100 mg/liter)], and all subsequent procedures were carried out at 4° C. The homogenate was centrifuged at 20,000×g for 15 min, and the supernatant was loaded at 2 ml/min onto a 20-ml column of diethylminoethyl (DEAE) equilibrated with buffer A. The column was washed with 50 ml of buffer A and eluted with a 100-ml linear gradient of 0-400 mM NaCl in buffer A. Fractions (2.5 ml) were assayed for enzyme activity.
In our preliminary efforts to purify NO synthase, we observed that enzymatic activity adheres to a DEAE column and can be eluted by 1M NaCl. […] Since NO formation requires Ca^2+, we speculated that calmodulin might be involved. […] NO synthase activity elutes in one sharp, major peak followed by a smaller peak of activity, which is observed reproducibly in multiple experiments.

Data set [6] concerns the target T3, NO synthase. The experiment in a line: Storage stability of NO synthase activity. Type of data set: physicochemical. On the procedure:
After incubation for 5 min at 22° C., assays were terminated with 2 ml of 20 mM Hepes, pH 5.5/2 mM EDTA, and were applied to 1-ml columns of Dowex AG502X-8 (Na^+ form), which were eluted with 2 ml of water. [^3 H]Citrulline was quantified by liquid scintillation spectroscopy of the 4-ml flow-through.
The purified enzyme is unstable. When stored at 0° C., 50% of the enzyme activity is lost in 2 hr, whereas the crude supernatant preparation loses 50% activity at 0° C. in 2 days. Stability is enhanced by storing the enzyme in bovine serum albumin (1 mg/ml)/20% (vol/vol) glycerol at -70° C. When stored in this way, the enzyme loses<50%activity in 7 days.

For data set [7], the target named is T3, NO synthase. The experiment in a line: Specific activity of fractions during purification of NO synthase. Type of data set: biochemical. Particulars: typical purification, repeated five times.
Protocol: After a 10-min incubation, the suspension was poured into a fritted column, which was washed with 50 ml of buffer B with 0.5M NaCl and then with 20 ml of buffer B alone.
Enzyme was purified and fractions were assayed as described.

A value given as a limit tells only on which side of the number the result lay.

T1 sequence (P29476 whole entry, one chain of several): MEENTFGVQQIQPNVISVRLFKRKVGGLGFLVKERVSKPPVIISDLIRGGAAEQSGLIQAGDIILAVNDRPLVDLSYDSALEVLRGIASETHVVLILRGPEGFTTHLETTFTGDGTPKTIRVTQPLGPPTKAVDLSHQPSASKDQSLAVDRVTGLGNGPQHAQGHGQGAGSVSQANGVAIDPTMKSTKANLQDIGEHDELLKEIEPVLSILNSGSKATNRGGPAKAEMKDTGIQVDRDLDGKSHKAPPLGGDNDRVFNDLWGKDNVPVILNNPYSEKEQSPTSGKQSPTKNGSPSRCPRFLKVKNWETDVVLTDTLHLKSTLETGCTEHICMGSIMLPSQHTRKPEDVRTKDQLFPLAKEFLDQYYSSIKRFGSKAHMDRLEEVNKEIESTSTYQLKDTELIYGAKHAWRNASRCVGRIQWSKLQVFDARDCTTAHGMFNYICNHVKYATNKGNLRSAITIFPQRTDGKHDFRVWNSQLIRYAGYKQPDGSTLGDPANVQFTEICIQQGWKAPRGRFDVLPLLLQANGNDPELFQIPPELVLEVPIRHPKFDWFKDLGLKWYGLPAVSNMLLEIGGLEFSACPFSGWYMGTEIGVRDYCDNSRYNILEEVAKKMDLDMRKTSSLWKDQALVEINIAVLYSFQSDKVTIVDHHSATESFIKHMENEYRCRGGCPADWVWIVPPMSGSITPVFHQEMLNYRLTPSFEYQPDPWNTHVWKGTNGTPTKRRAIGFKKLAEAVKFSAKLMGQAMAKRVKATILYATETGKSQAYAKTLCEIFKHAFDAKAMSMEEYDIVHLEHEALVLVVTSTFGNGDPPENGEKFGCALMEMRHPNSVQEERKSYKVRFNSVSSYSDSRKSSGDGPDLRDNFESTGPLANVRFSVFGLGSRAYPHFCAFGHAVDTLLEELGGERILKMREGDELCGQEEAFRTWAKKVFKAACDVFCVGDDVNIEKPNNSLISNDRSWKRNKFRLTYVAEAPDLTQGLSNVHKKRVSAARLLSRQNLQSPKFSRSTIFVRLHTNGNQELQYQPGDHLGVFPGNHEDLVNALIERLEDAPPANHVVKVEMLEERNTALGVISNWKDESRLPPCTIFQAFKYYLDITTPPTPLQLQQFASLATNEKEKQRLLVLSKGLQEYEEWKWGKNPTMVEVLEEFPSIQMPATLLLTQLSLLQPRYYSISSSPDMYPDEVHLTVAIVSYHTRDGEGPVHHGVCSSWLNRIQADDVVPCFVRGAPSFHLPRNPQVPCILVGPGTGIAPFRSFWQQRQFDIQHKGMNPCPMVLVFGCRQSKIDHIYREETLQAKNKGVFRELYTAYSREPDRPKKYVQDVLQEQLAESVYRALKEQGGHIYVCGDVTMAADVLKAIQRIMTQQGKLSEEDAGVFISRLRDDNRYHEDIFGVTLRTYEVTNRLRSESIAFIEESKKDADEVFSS

For the compound `[Ca+2]` [Ca^2+, calcium], the EC50 in data set [1] came out at 0.2 µM. In data set [2] (crude preparations), the “EC50 compared with crude preparations” value is “the same in the pure and crude preparations”. In addition, the “Concentration of maximal enhancement of activity” value in data set [3] was 1 µM. Besides, the “Stimulation in the absence of NADPH” value in data set [3] (absence of NADPH) is on record as “fails to stimulate NO synthase activity”. Moreover, the “Activity at high Ca2+” value in data set [3] (concentrations exceeding 100 μM Ca2+) is reported as “some reduction in activity”.
Turning to `NCCCCCCNS(=O)(=O)c1cccc2ccccc12` [W-5], the values for the IC50 in data set [1] and in data set [4] were 25 µM and 50 µM, respectively.
For `NCCCCNS(=O)(=O)c1ccc2c(Cl)cccc2c1` [W-13] the same measures were 70 µM and 25 µM.
On to Calmodulin, for which the EC50 in data set [1] was found to be 0.01 µM. In data set [2] (crude cerebellar supernatant preparations, calmodulin 1 μM), the “Influence of added calmodulin on enzyme activity” value is listed as “no influence on enzyme activity”. For the same compound, the “Stimulation of NO synthase activity” value in data set [3] (FIG. 2A) is listed as “extremely potent stimulator of NO synthase activity”. In addition, the “Effect of addition to DEAE eluate fractions on enzyme activity” value in data set [5] is recorded as “restores enzyme activity”. Also, in data set [6] (presence of calmodulin), the “Effect on stability of the enzyme” value is given as “Stability is also enhanced”.
For the compound “NO synthase: calmodulin-dependent nitric oxide synthase purified to homogeneity from rat cerebella by DEAE and 2',5'-ADP agarose chromatography”, the Vmax in data set [1] (Table 2) was 0.96 μmol per min per mg of protein. For the same compound, the Specific activity in data set [7] is 960 nmol/mg/min. Also, the “Enzyme activity lost on storage” value in data set [6] (bovine serum albumin (1 mg/ml)/20% (vol/vol) glycerol at -70° C., 7 days) was less than 50%. Besides, in data set [6] (stored at 0° C.), the “Time to loss of 50% of the enzyme activity” value turned out to be 2 h.

By IC50 is commonly meant the concentration that inhibits the measured activity by half.
